These results are taken from PubChem BioAssay AID489035 (Sanford-Burnham Center for Chemical Genomics, 2010).

Molecules are shown by their SMILES. The source made the active and inactive calls. How the calls were made is not given here.

This experiment relates to Jurkat NF-kB reporter, TCR-induced, luciferase luminescence. Description: inhibitors of TCR-driven NF-kB activation, dose response, Jurkat cells, luminescence (AID 489035).
Take `CCc1cc2c(=O)nc3n(c2s1)Cc1ccccc1/C3=C(/O)c1cccc([N+](=O)[O-])c1`: the IC50 is > 80 µM (inactive). With `Cc1c(C(=O)OC2CCCC2)[nH]c2c1C(=O)CC(c1ccco1)C2` (stereo not drawn), the IC50 is > 80 µM (inactive).

Consider `CC(=O)Nc1ccc(S(=O)(=O)N2CCCc3ccccc32)cc1`, for which the IC50 was > 80 µM (inactive). For the compound `CCn1nc(C)c(CNC(=O)c2ccc(OC3CCN(Cc4ccccn4)CC3)cc2)c1C`, the IC50 was > 80 µM (inactive). As for `CN=c1scc(-c2cccs2)n1/N=C/c1ccccc1O`, the figure is 2.09 µM; as for `O=C(NCc1ccc2c(c1)OCO2)c1cc([N+](=O)[O-])ccc1N1CCOCC1`, > 80 µM (inactive). For `O=S(=O)(c1ccc2c(c1)OCCO2)N1CCN(c2ncnc3sccc23)CC1`, the IC50 was > 80 µM (inactive). The result for `Cc1oc(-c2ccc(Cl)cc2)nc1CS(=O)CC(=O)NCCCN1CCN(Cc2ccccc2)CC1` (stereo not drawn) reads 26.4 µM (inactive); that for `COc1cc(-c2noc(C)c2/C=C/c2cccc([N+](=O)[O-])c2)cc(OC)c1OC`, > 80 µM (inactive); that for `Nc1nc(Cl)cc(N2CCC(c3cc(-c4ccc(Cl)cc4)n[nH]3)CC2)n1`, 1.87 µM. `C[C@@H]1C=CC(=O)O[C@@H]1c1ccc(Cl)cc1`: the IC50 was 0.38 µM. `CCN(CC)c1ccc(/C=N/NC(=O)c2nnn(-c3nonc3N)c2C(C)C)c(O)c1`: the IC50 is 2.02 µM. The result for `Cc1ccc(C[n+]2c(-c3ccc(C)cc3)cc(-c3ccc(C)cc3)cc2-c2ccc(C)cc2)cc1` reads 2.35 µM. `COc1ccc(OCC(=O)Nc2ccccc2N2CCCCC2)cc1`: the IC50 is > 80 µM (inactive). On to `O=C(NN=Cc1c(O)ccc2ccccc12)c1ccc2c(c1)OCO2`, for which the IC50 was 26.6 µM (inactive).

Regarding `C[C@]12CCC3C(CCC4=CC(O)CC[C@@]43/C=N/O)C1(O)CCC2C1=CC(=O)OC1` (stereo partly drawn), the IC50 is 47.8 µM (inactive). Turning to `O=C(Nc1ccncc1)C1CCCN(S(=O)(=O)c2cccc3cccnc23)C1` (stereo not drawn), the IC50 is > 80 µM (inactive).

Take `Cc1noc(C)c1COc1cccc(C(=O)OCC(=O)N2CC(=O)Nc3ccccc32)c1`: the IC50 is > 80 µM (inactive).

`C=C1C(=O)O[C@H]2C[C@@H](C)[C@@H]3C=CC(=O)[C@@]3(C)C[C@H]12`: the IC50 was 1.26 µM. As for `Cc1cccc(NS(=O)(=O)c2ccc(-c3cnc(C4CC4)o3)cc2)c1`, the figure is > 80 µM (inactive); as for `Cc1nn(-c2ccccc2Cl)c(Cl)c1/C=N/Nc1nc2ccccc2s1`, less than 0.16 µM; as for `COc1ccc2c(c1)C(=O)N1[C@H]3c4cc(Br)ccc4OC[C@@H]3[C@H](c3ccccc3)[C@]1(C)C(=O)N2`, > 80 µM (inactive). As for `Cc1nc2ccccc2c2c1CC(C(C)(Cl)Br)O2` (stereo not drawn), the IC50 was > 80 µM (inactive).

For `O=C(NNc1ccnc2cc(Cl)ccc12)C1CCCCC1`, the IC50 is > 80 µM (inactive). In the case of `CCN(CC)c1ccc(-c2nn3c(-c4ccccc4OC)nnc3s2)cc1`, the IC50 was 20.4 µM (inactive). Turning to `Cc1cccc(N(C)S(=O)(=O)c2ccc(-c3cnc(C4CC4)o3)cc2)c1`, the IC50 was 23.8 µM (inactive). As for `O=C(Nc1ccc(CSc2ccccc2)cc1)c1ccc(CN2CCOCC2)cc1`, the figure is > 80 µM (inactive); as for `Cc1ccc2[nH]c3c(c2c1)CCCC3NC(=O)CCl` (stereo not drawn), 0.32 µM.

Regarding `COc1ccc(Nc2ncnc3ccc(Br)cc23)c(OC)c1`, the IC50 is 22 µM (inactive). As for `CCOc1ccc(S(=O)(=O)N2c3ccccc3CC2C)cc1` (stereo not drawn), the figure is 8.42 µM; as for `O=C(c1ccccc1-c1ccccc1)N1CCN(c2ccccn2)CC1`, > 80 µM (inactive); as for `CCCCCCCCC[n+]1cccc2c3ccccc3ccc21`, 8.65 µM. Regarding `Cc1ccc2c(c1)C=CC(C#N)N2C(=O)c1ccccc1` (stereo not drawn), the IC50 is > 80 µM (inactive). With `CC(C)Nc1ccc(C(CC(N)=O)NC(=O)c2ccc(Br)cc2)cc1[N+](=O)[O-]` (stereo not drawn), the IC50 was 4.05 µM.

As for `COc1ccccc1-c1nnc2sc(-c3ccc(N(C)C)cc3)nn12`, the IC50 is > 80 µM (inactive). As for `CC(C)(C)c1nnc(N/N=C/c2ccccc2O)n(N)c1=O`, the figure is 12.2 µM; as for `Cc1nc(NCc2ccco2)c2c(C)c(C)sc2n1`, 3.1 µM. The result for `CCOC(=O)Nc1nc(-c2ccccc2)c(C(=O)c2ccc(Cl)cc2)s1` reads 4.16 µM; that for `CCCC[C@@H](C)C[C@@H](C)C(=O)N(C)[C@@H](CC(C)C)C(=O)N[C@H](C(=O)N(C)[C@H](C(=O)N1C[C@@H](O)C[C@H]1C(=O)N1C(=O)C=C[C@@H]1C)C(C)C)C(C)OC(C)=O` (stereo partly drawn), 4.87 µM; that for `Cc1cccc(N2CCN(C(=O)c3c(-c4ccccc4)noc3C)CC2)c1C`, > 80 µM (inactive). Regarding `CCOC(=O)c1ccccc1NS(=O)(=O)c1ccc(OCC)cc1`, the IC50 is 78.3 µM (inactive). With `CC1(C)Cc2nc3sc4c(=O)n(CC(=O)NCc5ccccc5)cnc4c3cc2CO1`, the IC50 is > 80 µM (inactive). As for `COc1ccccc1NC(=O)C1=C(C)Nc2nc3ccccc3n2C1c1cccs1` (stereo not drawn), the figure is 52.3 µM (inactive). As for `COc1cc(-c2c(-c3cc(OC)c(OC)c(OC)c3)noc2C)ccc1F`, the figure is 31.6 µM (inactive); as for `COC(=O)C1CN(C#N)N(c2ccc(Cl)cc2)C12c1ccccc1-c1ccccc12` (stereo not drawn), 0.9 µM. In the case of `Oc1ccc2ccccc2c1N=Nc1ccccn1`, the IC50 was 1.96 µM. For `CC1(C)Cc2c(sc(NC(=O)COc3cccc4ccccc34)c2C#N)C(C)(C)N1`, the IC50 is 13.5 µM. Consider `COc1ccc(Nc2cc(C)nc(-n3nc(C)cc3C)n2)cc1`, for which the IC50 is > 80 µM (inactive).

In the case of `Cc1ccsc1/C=N/NC(=O)c1cc(-c2ccncc2)nc2ccccc12`, the IC50 is 35.1 µM (inactive). As to `CC(C)c1ccc(/C=N/Nc2ccc(C(=O)O)cc2)cc1`, the IC50 is 4.63 µM. `CC(=O)Nc1ccc(S(=O)(=O)N2CCSc3ccccc32)cc1`: the IC50 was > 80 µM (inactive). As for `COc1cc(C(=O)OCCc2cc3ccccc3c(=O)o2)cc(OC)c1OC`, the figure is 21.6 µM (inactive); as for `CN(C)c1ccc2c(c1)OC(N)=C(C#N)C2c1cccc(F)c1` (stereo not drawn), 50.2 µM (inactive). Regarding `C#Cc1ccc([C@@H]2C=C(C(=O)N3CCN(Cc4ccccc4)CC3)O[C@H](OCCCCO)C2)cc1`, the IC50 is > 80 µM (inactive).

For `O=C(c1ccccc1)c1nn(-c2ccc(Cl)cc2)c(=O)cc1C(F)(F)F`, the IC50 is 1.25 µM. As for `COc1cc(NS(C)(=O)=O)ccc1Nc1c2ccccc2nc2ccccc12`, the figure is 9.5 µM; as for `O=C(OCCN1C(=O)c2cccc3c(N4CCOCC4)ccc(c23)C1=O)c1ccc(Cl)cc1`, > 80 µM (inactive). `COc1cc2c(c(OC)c1OC)-c1ccc(OC)c(=O)cc1[C@@H](N(C)CC#CCO)CC2`: the IC50 is > 80 µM (inactive).

For the compound `Cc1ncoc1C(=O)NC1CCCc2c1cnn2-c1ccc(C(C)(C)C)cc1` (stereo not drawn), the IC50 is > 80 µM (inactive). Regarding `COc1ccc(OC)c(-c2nnc3n2N=C(c2ccc(OC)c(OC)c2)CS3)c1`, the IC50 was 9.88 µM.

As for `COc1cc(-c2noc(C)c2/C=C/c2ccc(OC(C)=O)cc2)cc(OC)c1OC`, the IC50 was 31.5 µM (inactive).

As for `CC1CC(C)CN(S(=O)(=O)c2ccc(NC(=O)c3ccc(=O)[nH]c3)cc2)C1` (stereo not drawn), the IC50 was > 80 µM (inactive). As to `CCOc1ccccc1C1CC(=O)Nc2cc(C)c(C)cc21` (stereo not drawn), the IC50 is > 80 µM (inactive). Take `O=C(COc1ccccc1-c1ccccc1)N/N=C/c1cccc2ccccc12`: the IC50 was less than 0.16 µM. For `Cc1cc(-c2ccc(C(C)C)c(S(=O)(=O)N3CCN(c4ccccc4)CC3)c2)on1`, the IC50 was > 80 µM (inactive).

Regarding `Cc1ccc2c(c1)Oc1ccc(NC(=O)CCl)cc1C(=O)N2`, the IC50 was 5.22 µM. Consider `Cc1ccnc2c1ccc1c(C)ccnc12`, for which the concentration for half-maximal inhibition (IC50) was 2.42 µM. As for `O=c1cc(-c2ccccc2)[nH]c2ccccc12`, the figure is > 80 µM (inactive); as for `CC(Oc1ccc(Cl)cc1Cl)C(=O)Nc1ccncc1` (stereo not drawn), 61.3 µM (inactive); as for `COCCCNC(=O)C(=O)Nc1ccc2c(c1)N(S(=O)(=O)c1cccs1)CCC2`, 5.46 µM.

As for `O=C(Nc1ccc(F)cc1)c1ccc(CN2CCc3ccccc3C2)cc1`, the IC50 is > 80 µM (inactive). As for `CCOC(=O)c1[nH]c(C)c(C(=O)Nc2ccccc2C)c1C`, the figure is less than 0.16 µM. As to `CC1=Nc2ccccc2/C1=C\c1sc(Nc2ccc(C)cc2)nc1O`, the IC50 was > 80 µM (inactive). The result for `CCOC(=O)C(C)Oc1cccc2c(=O)n(CC(=O)NCc3ccco3)ccc12` (stereo not drawn) reads > 80 µM (inactive); that for `O=S(=O)(Nc1ccc(F)cc1Cl)c1ccc(-c2cnc(C3CC3)o2)cc1`, > 80 µM (inactive); that for `Cc1ccc(Oc2ccc(OCC(=O)Nc3ccncc3)cc2)cc1`, 19.3 µM. As for `Cc1cc(C)nc(SCC(=O)Nc2ccnc3ccccc23)n1`, the figure is > 80 µM (inactive); as for `CCOC(=O)CSC1=C(C#N)C(c2ccc(C)s2)CC(=O)N1` (stereo not drawn), > 80 µM (inactive). As for `CC(C)n1c(CN(C)Cc2ccccc2)nc2c1c(=O)n(C)c(=O)n2C`, the figure is > 80 µM (inactive); as for `O=C(Nc1ccc(S(=O)(=O)Nc2ccccc2)cc1)c1ccc(CN2CCOCC2)cc1`, 29.5 µM (inactive); as for `C/C=C/COC(=O)c1[nH]c2c(c1C)C(=O)CC(c1ccco1)C2` (stereo not drawn), > 80 µM (inactive). With `Cc1cccc(OCCNC(=O)c2ccc(Cl)c(S(=O)(=O)NCc3cccnc3)c2)c1`, the IC50 is > 80 µM (inactive). As to `CCC(O)C1CCN(C(=O)c2cc(COc3ccc4ncccc4c3)on2)CC1` (stereo not drawn), the IC50 was 0.69 µM. As for `Cc1ccc(/C=N/NC(=O)C2COc3ccccc3O2)s1` (stereo not drawn), the figure is > 80 µM (inactive); as for `CCN1/C(=C/c2ccc3cc(C)ccc3[n+]2CC)Sc2ccc3sccc3c21`, 3.1 µM.

Take `COc1cccc(CN(C)C(=O)c2cc(COc3ccc4ncccc4c3)on2)c1`: the IC50 was 12.5 µM. Take `CCOC(=O)c1[nH]c(C)c(C(=O)Nc2cc(OC)ccc2OC)c1C`: the IC50 was > 80 µM (inactive). With `O=C(c1ccc(CS(=O)c2ccccc2Cl)o1)N1CCN(c2ccccn2)CC1` (stereo not drawn), the IC50 is 68.2 µM (inactive).

One may read the IC50 as the concentration needed to halve the response being measured.
